Assay results taken from patent publication US20260364214A1, “MULTIVALENT FIBROBLAST ACTIVATION PROTEIN LIGANDS FOR TARGETED DELIVERY APPLICATIONS” (Philochem AG, priority 2022, published 2026).

Legend:
recombinant hFAP = biological target: T1, recombinant hFAP (Homo sapiens, UniProt Q12884); assay: hFAP inhibition assay (Z-Gly-Pro-AMC substrate); type: biochemical
T1 sequence (Q12884 26-760 limits assumed): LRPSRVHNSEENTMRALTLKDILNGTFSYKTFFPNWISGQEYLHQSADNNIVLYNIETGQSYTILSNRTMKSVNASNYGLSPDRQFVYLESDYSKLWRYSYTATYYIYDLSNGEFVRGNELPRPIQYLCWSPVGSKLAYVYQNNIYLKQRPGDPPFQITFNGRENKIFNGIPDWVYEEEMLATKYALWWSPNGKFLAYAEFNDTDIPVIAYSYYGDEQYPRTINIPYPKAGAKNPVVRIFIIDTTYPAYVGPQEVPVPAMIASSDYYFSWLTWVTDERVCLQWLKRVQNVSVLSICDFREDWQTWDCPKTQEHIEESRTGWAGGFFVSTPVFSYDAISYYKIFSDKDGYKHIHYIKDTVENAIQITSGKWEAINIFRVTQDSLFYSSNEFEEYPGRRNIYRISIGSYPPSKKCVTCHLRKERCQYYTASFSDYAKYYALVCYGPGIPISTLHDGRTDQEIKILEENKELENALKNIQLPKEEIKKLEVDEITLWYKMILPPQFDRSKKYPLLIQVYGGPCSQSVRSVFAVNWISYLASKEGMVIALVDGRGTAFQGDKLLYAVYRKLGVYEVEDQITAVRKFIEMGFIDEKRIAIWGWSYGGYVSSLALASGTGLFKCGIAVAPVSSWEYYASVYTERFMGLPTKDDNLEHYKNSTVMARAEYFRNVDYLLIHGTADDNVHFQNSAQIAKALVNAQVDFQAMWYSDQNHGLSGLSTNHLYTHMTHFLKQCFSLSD
Procedure: (§1) Enzymatic activity of hFAP on the Z-Gly-Pro-AMC substrate was measured at room temperature on a microtiter plate reader, monitoring the fluorescence at an excitation wavelength of 360 nm and an emission wavelength of 465 nm. The reaction mixture contained substrate (20 μM), protein (66 μM, constant), assay buffer (50 mM Tris, 100 mM NaCl, and 1 mM EDTA, pH=7.4), and inhibitors with serial dilution from 167 nM to 80 fM, 1:2 in a total volume of 20 μL. Experiments were performed in triplicate, and the mean fluorescence values were fitted using Prism 7. The value is defined as the concentration of inhibitor required to reduce the enzyme activity by 50% after addition of the substrate [FIG. 1 and FIG. 8].
According to the same procedure, further comparative inhibition assays with trimeric binders having inter alia different lengths of linker group B and/or different payload groups C were performed with compounds Tri-ESV6-ValCit-MMAE (14), Tri-ESV6-linker-DOTAGA (13) and diastereoisomers of Tri-ESV6-DOTAGA (11, 12) [FIG. 18]. Comparative hFAP inhibition assays with tetravalent binders 10 and 29 were also performed [FIG. 20].
as §1, with “substrate.” for “substrate [FIG. 1 and FIG. 8].”
as §1, with “e) Inhibition assay with Tri-ESV6-DOTAGA, Tetra-ESV6-DOTAGA, Hexa-ESV6-DOTAGA, Octa-ESV6-DOTAGA, ESV6-L-DOTAGA and BI-ESV6-L-DOTAGA. Enzymatic” for “Enzymatic”, “substrate.” for “substrate [FIG. 1 and FIG. 8].”

SK-RC-52.hFAP tumors = assay: Dose escalation / dose optimization for radiotherapeutic applications; type: in vivo, mouse (female athymic Balb/c AnNRj-Foxn1); settings: 24 h
Procedure: Prior to the dose optimization study for radiotherapeutic applications, precursors (0.24 to 180 nmol) were dissolved in milliQ water and diluted with sodium acetate (1 M in water, pH=4.5). ^177Lu solution (4 MBq) were added and the mixture was heated at 90 °C for 10 minutes, followed by dilution with PBS to achieve final volume of 400 μL (4 doses of 100 μL each).
Female athymic Balb/c AnNRj-Foxn1 mice bearing subcutis SK-RC-52.hFAP tumors were injected intravenously with eight different doses of ^177Lu-Tri-ESV6-DOTAGA ranging from 3 nmol/kg to 2250 nmol/kg. The mice were sacrificed after 24 h and tumor and healthy organs were harvested and measured with a gamma counter. Since the best tumor to organ ratios are obtained with high doses ranging between 90 and 250 nmol/kg, we anticipate that the ideal dose in human patients for radiotherapeutic applications will be between 1 and 3 milligram per patient. e) Therapeutic efficacy evaluation in tumor bearing mice in dose escalation and in combination with L19-IL2

## N#C[C@@H]1CC(F)(F)CN1C(=O)CNC(=O)c1ccnc2c(NC(=O)CCC(=O)NCCNC(=O)CCOCC(COCCC(=O)NCCNC(=O)CCC(=O)Nc3cccc4c(C(=O)NCC(=O)N5CC(F)(F)C[C@H]5C#N)ccnc34)(COCCC(=O)NCCNC(=O)CCC(=O)Nc3cccc4c(C(=O)NCC(=O)N5CC(F)(F)C[C@H]5C#N)ccnc34)NC(=O)CCC(C(=O)O)N3CCN(CC(=O)O)CCN(CC(=O)O)CCN(CC(=O)O)CC3)cccc12 (stereo partly drawn) [Tri-ESV6-DOTAGA, 2,2′,2″-(10-(19-carboxy-1-((4-((2-((S)-2-cyano-4,4-difluoropyrrolidin-1-yl)-2-oxoethyl)carbamoyl)quinolin-8-yl)amino)-14,14-bis((3-((2-(4-((4-((2-((S)-2-cyano-4,4-difluoropyrrolidin-1-yl)-2-oxoethyl)carbamoyl)quinolin-8-yl)amino)-4-oxobutanamido)ethyl)amino)-3-oxopropoxy)methyl)-1,4,9,16-tetraoxo-12-oxa-5,8,15-triazanonadecan-19-yl)-1,4,7,10-tetraazacyclododecane-1,4,7-triyl)triacetic acid]
Recombinant hFAP; Z-Gly-Pro-AMC 20 μM, protein 66 μM, pH 7.4, room temperature
  IC50: 0.012 nM
Recombinant hFAP; recombinant hFAP
  IC50 / inhibitory activity, comparison in words: remarkably lower IC50 compared to ESV6-DOTAGA, Bi-ESV6-DOTAGA and FAP-2286
Recombinant hFAP; vs Tri-ESV6-PEG12-DOTAGA
  lower IC50 compared to Tri-ESV6-PEG12-DOTAGA: ~ 1000 fold
Recombinant hFAP; vs bivalent Bi-ESV6-DOTAGA
  improvement in IC50 as compared to Bi-ESV6-DOTAGA: 10 fold
Recombinant hFAP; vs monovalent ESV6-DOTAGA
  improvement in IC50 as compared to ESV6-DOTAGA: 43 fold

## N#CC1CC(F)(F)CN1C(=O)CNC(=O)c1ccnc2c(NC(=O)CCC(=O)NCCNC(=O)CCOCC(COCCC(=O)NCCNC(=O)CCC(=O)Nc3cccc4c(C(=O)NCC(=O)N5CC(F)(F)CC5C#N)ccnc34)(COCCC(=O)NCCNC(=O)CCC(=O)Nc3cccc4c(C(=O)NCC(=O)N5CC(F)(F)CC5C#N)ccnc34)NC(=O)CCC(C(=O)O)N3CCN(CC(=O)[O-])CCN(CC(=O)[O-])CCN(CC(=O)[O-])CC3)cccc12.[177Lu+3] (stereo not shown) [^177Lu-Tri-ESV6-DOTAGA]
SK-RC-52.hFAP tumors; highest doses (>90 nmol/kg)
  % ID/g in tumor, in words: drops
SK-RC-52.hFAP tumors; lowest doses (<10 nmol/kg)
  uptake in healthy organs, in words: partially uptaken in healthy organs
